Data from ChEMBL document CHEMBL2440076, “New triarylpyrazoles as broad-spectrum anticancer agents: design, synthesis, and biological evaluation” (Eur J Med Chem, 2013).

Tests used:
Assay type in all cases: functional
HOP-62 = test: Growth inhibition of human HOP62 cells assessed as cell growth at 10^-8 M after 48 hrs by sulforhodamine B assay; conditions: HOP-62, 48 h, read-out: Activity
ACHN [1] = test: Growth inhibition of human ACHN cells assessed as cell growth at 10^-5 M after 48 hrs by sulforhodamine B assay; conditions: read-out: Activity
SF-268 = test: Growth inhibition of human SF268 cells assessed as cell growth at 10^-5 M after 48 hrs by sulforhodamine B assay; conditions: SF-268, 48 h, read-out: Activity
M14 = test: Growth inhibition of human M14 cells assessed as cell growth at 10^-4 M after 48 hrs by sulforhodamine B assay; conditions: M14, 48 h, read-out: Activity
HCT-15 = test: Growth inhibition of human HCT15 cells assessed as cell growth at 10^-5 M after 48 hrs by sulforhodamine B assay; conditions: HCT-15, 48 h, read-out: Activity
SK-OV-3 = test: Growth inhibition of human SKOV3 cells assessed as cell growth at 10^-6 M after 48 hrs by sulforhodamine B assay; conditions: SK-OV-3, 48 h, read-out: Activity
NCI-H226 = test: Growth inhibition of human NCI-H226 cells assessed as cell growth at 10^-8 M after 48 hrs by sulforhodamine B assay; conditions: NCI-H226, 48 h, read-out: Activity
NCI-H322M = test: Growth inhibition of human NCI-H322M cells assessed as cell growth at 10^-5 M after 48 hrs by sulforhodamine B assay; conditions: read-out: Activity
A498 [2] = test: Growth inhibition of human A498 cells assessed as cell growth at 10^-8 M after 48 hrs by sulforhodamine B assay; conditions: A498, 48 h, read-out: Activity
Malme-3M [3] = test: Growth inhibition of human MALME-3M cells assessed as cell growth at 10^-8 M after 48 hrs by sulforhodamine B assay; conditions: read-out: Activity
SN12C [4] = test: Growth inhibition of human SN12C cells assessed as cell growth at 10^-5 M after 48 hrs by sulforhodamine B assay; conditions: read-out: Activity
NCI-H460 [5] = test: Growth inhibition of human NCI-H460 cells assessed as cell growth at 10^-5 M after 48 hrs by sulforhodamine B assay; conditions: NCI-H460, 48 h, read-out: Activity
NCI-H522 = test: Growth inhibition of human NCI-H522 cells assessed as cell growth at 10^-5 M after 48 hrs by sulforhodamine B assay; conditions: NCI-H522, 48 h, read-out: Activity
CCRF-CEM = test: Growth inhibition of human CCRF-CEM cells assessed as cell growth at 10^-6 M after 48 hrs by sulforhodamine B assay; conditions: read-out: Activity
NCI-H460 [6] = test: Growth inhibition of human NCI-H460 cells assessed as cell growth at 10^-8 M after 48 hrs by sulforhodamine B assay; conditions: NCI-H460, 48 h, read-out: Activity
A549 = test: Growth inhibition of human A549/ATCC cells assessed as cell growth at 10^-4 M after 48 hrs by sulforhodamine B assay; conditions: A549, 48 h, read-out: Activity
MCF7 = test: Growth inhibition of human MCF7 cells assessed as cell growth at 10^-5 M after 48 hrs by sulforhodamine B assay; conditions: MCF7, 48 h, read-out: Activity
SN12C [7] = test: Growth inhibition of human SN12C cells assessed as cell growth at 10^-6 M after 48 hrs by sulforhodamine B assay; conditions: read-out: Activity
Malme-3M [8] = test: Growth inhibition of human MALME-3M cells assessed as cell growth at 10^-7 M after 48 hrs by sulforhodamine B assay; conditions: read-out: Activity
NCI-H460 [9] = test: Growth inhibition of human NCI-H460 cells assessed as cell growth at 10^-7 M after 48 hrs by sulforhodamine B assay; conditions: NCI-H460, 48 h, read-out: Activity
LOX IMVI = test: Growth inhibition of human LOXIMVI cells assessed as cell growth at 10^-7 M after 48 hrs by sulforhodamine B assay; conditions: read-out: Activity
A498 [10] = test: Growth inhibition of human A498 cells assessed as cell growth at 10^-5 M after 48 hrs by sulforhodamine B assay; conditions: A498, 48 h, read-out: Activity
ACHN [11] = test: Growth inhibition of human ACHN cells assessed as cell growth at 10^-4 M after 48 hrs by sulforhodamine B assay; conditions: read-out: Activity
UACC-62 = test: Growth inhibition of human UACC62 cells assessed as cell growth at 10^-8 M after 48 hrs by sulforhodamine B assay; conditions: UACC-62, 48 h, read-out: Activity
786-0 [12] = test: Growth inhibition of human 786-0 cells assessed as cell growth at 10^-5 M after 48 hrs by sulforhodamine B assay; conditions: 786-0, 48 h, read-out: Activity
DU-145 [13] = test: Growth inhibition of human DU145 cells assessed as cell growth at 10^-4 M after 48 hrs by sulforhodamine B assay; conditions: DU-145, 48 h, read-out: Activity
SF-295 = test: Growth inhibition of human SF295 cells assessed as cell growth at 10^-8 M after 48 hrs by sulforhodamine B assay; conditions: SF-295, 48 h, read-out: Activity
CAKI-1 = test: Growth inhibition of human CAKI-1 cells assessed as cell growth at 10^-6 M after 48 hrs by sulforhodamine B assay; conditions: CAKI-1, 48 h, read-out: Activity
SK-MEL-2 = test: Growth inhibition of human SK-MEL-2 cells assessed as cell growth at 10^-7 M after 48 hrs by sulforhodamine B assay; conditions: SK-MEL-2, 48 h, read-out: Activity
RPMI-8226 = test: Growth inhibition of human RPMI8226 cells assessed as cell growth at 10^-5 M after 48 hrs by sulforhodamine B assay; conditions: RPMI-8226, 48 h, read-out: Activity
[14] = Growth inhibition of human NCI-ADR-RES cells assessed as cell growth at 10^-4 M after 48 hrs by sulforhodamine B assay; conditions: read-out: Activity
DU-145 [15] = test: Growth inhibition of human DU145 cells assessed as cell growth at 10^-8 M after 48 hrs by sulforhodamine B assay; conditions: DU-145, 48 h, read-out: Activity
HT-29 = test: Growth inhibition of human HT-29 cells assessed as cell growth at 10^-8 M after 48 hrs by sulforhodamine B assay; conditions: HT-29, 48 h, read-out: Activity
786-0 [16] = test: Growth inhibition of human 786-0 cells assessed as cell growth at 10^-8 M after 48 hrs by sulforhodamine B assay; conditions: 786-0, 48 h, read-out: Activity
[17] = Growth inhibition of human NCI-ADR-RES cells assessed as cell growth at 10^-7 M after 48 hrs by sulforhodamine B assay; conditions: read-out: Activity
OVCAR-3 [18] = test: Growth inhibition of human OVCAR3 cells assessed as cell growth at 10^-4 M after 48 hrs by sulforhodamine B assay; conditions: OVCAR-3, 48 h, read-out: Activity
SF-539 = test: Growth inhibition of human SF539 cells assessed as cell growth at 10^-4 M after 48 hrs by sulforhodamine B assay; conditions: SF-539, 48 h, read-out: Activity
BT-549 = test: Growth inhibition of human BT549 cells assessed as cell growth at 10^-8 M after 48 hrs by sulforhodamine B assay; conditions: BT-549, 48 h, read-out: Activity
OVCAR-3 [19] = test: Growth inhibition of human OVCAR3 cells assessed as cell growth at 10^-6 M after 48 hrs by sulforhodamine B assay; conditions: OVCAR-3, 48 h, read-out: Activity

| SMILES | growth at 0.01 µM (HOP-62) | growth at 10 µM (ACHN [1]) | growth at 10 µM (SF-268) | growth at 100 µM (M14) | growth at 10 µM (HCT-15) | growth at 1 µM (SK-OV-3) | growth at 0.01 µM (NCI-H226) | growth at 10 µM (NCI-H322M) | growth at 0.01 µM (A498 [2]) | growth at 0.01 µM (Malme-3M [3]) | growth at 10 µM (SN12C [4]) | growth at 10 µM (NCI-H460 [5]) | growth at 10 µM (NCI-H522) | growth at 1 µM (CCRF-CEM) | growth at 0.01 µM (NCI-H460 [6]) | growth at 100 µM (A549) | growth at 10 µM (MCF7) | growth at 1 µM (SN12C [7]) | growth at 0.1 µM (Malme-3M [8]) | growth at 0.1 µM (NCI-H460 [9]) | also measured |
| --- | --- | --- | --- | --- | --- | --- | --- | --- | --- | --- | --- | --- | --- | --- | --- | --- | --- | --- | --- | --- | --- |
| COc1cc(-c2nn(-c3cccc(NC(=O)c4ccc(N5CCOCC5)c(C(F)(F)F)c4)c3)cc2-c2ccncc2)ccc1Cl | 96% | 2% | 12% | -30% | 7% | 24% | 102% | 26% | 90% | 103% | 14% | 1% | -14% | 12% | 100% | 4% | 8% | 51% | 52% | 88% | growth at 0.1 µM (LOX IMVI): 78%; growth at 10 µM (A498 [10]): -32%; growth at 100 µM (ACHN [11]): 2%; growth at 0.01 µM (UACC-62): 95%; growth at 10 µM (786-0 [12]): -14%; growth at 100 µM (DU-145 [13]): 2%; growth at 0.01 µM (SF-295): 89%; growth at 1 µM (CAKI-1): 21%; growth at 0.1 µM (SK-MEL-2): 73%; growth at 10 µM (RPMI-8226): 6%; growth at 100 µM [14]: 2%; growth at 0.01 µM (DU-145 [15]): 108%; growth at 0.01 µM (HT-29): 98%; growth at 0.01 µM (786-0 [16]): 98%; growth at 0.1 µM [17]: 72%; growth at 100 µM (OVCAR-3 [18]): -33%; growth at 100 µM (SF-539): -40%; growth at 0.01 µM (BT-549): 99% |
| COc1cc(-c2nn(-c3cccc(NC(=O)c4ccccc4)c3)cc2-c2ccncc2)ccc1Cl | 94% | 26% | 24% | -41% | 17% | 51% | 97% | 36% | 92% | 98% | 34% | 7% | 4% | 27% | 102% | 6% | 10% | 64% | 82% | 99% | growth at 0.1 µM (LOX IMVI): 94%; growth at 10 µM (A498 [10]): -19%; growth at 100 µM (ACHN [11]): 27%; growth at 0.01 µM (UACC-62): 98%; growth at 10 µM (786-0 [12]): 24%; growth at 100 µM (DU-145 [13]): -5%; growth at 0.01 µM (SF-295): 93%; growth at 1 µM (CAKI-1): 52%; growth at 0.1 µM (SK-MEL-2): 90%; growth at 10 µM (RPMI-8226): 10%; growth at 1 µM (OVCAR-3 [19]): 4%; growth at 0.01 µM (DU-145 [15]): 104%; growth at 0.01 µM (HT-29): 98%; growth at 0.01 µM (786-0 [16]): 93%; growth at 0.1 µM [17]: 92%; growth at 100 µM (OVCAR-3 [18]): -51%; growth at 100 µM (SF-539): -22%; growth at 0.01 µM (BT-549): 92% |
